Assay results published in patent publication US20110044963A1, “Method of Testing a Patient for Hypertension and Related Method of Treatment and Test Kit” (priority 2009, published 2011).

Assays:
[1] = test system: rats infused with angiotensin II; assay: Vasoconstriction hypertension model (angiotensin II infusion), urinary angiotensinogen excretion and hypertension; format: in vivo, rat; settings: for angiotensinogen excretion (in words): angiotensin II treated rats, compared with Sham rats; for UAGT (Final) / UAGT (Initial): male rats, angiotensin infusion model; for UAGT (Final): final measurement, Sham 2.4 ± 0.5; for UAGT (Initial): initial measurement
Method: (§1) Tests were performed to determine whether nonpregnant rats of one of two models of human essential hypertension would create a problem with respect to the other model. More specifically, a volume expansion model included taking out one kidney, thereby accelerating the process of developing hypertension, plus the replacement of drinking water with saline and weekly administration of DOCA, a powerful mineralocorticoid in order to ensure that the salt present in the saline is retained in the rat. This was compared with a model used to induce vasoconstriction by infusing a powerful vasoconstrictor, angiotensin II. It was theorized that the use of an antagonist of MBG, resibufogenin (“RBG”) would ameliorate the hypertension in volume expanded animals and would have no effect on the rats infused with angiotensin II.
(§2) The test indicates the group of rats from a Sham (control) rat with measurements being taken initially and finally. It is noted that, in the NDS rats, which were subjected to nephrectomy and DOCA plus saline, there was no significant increase in the excretion of angiotensinogen. […] The RBG, as expected, also had no effect on the hypertension induced by angiotensin infusion.

[2] = test system: volume expansion model rats (nephrectomy DOCA saline); assay: Volume expansion hypertension model (nephrectomy, DOCA, saline), urinary angiotensinogen excretion; format: in vivo, rat
Method: as §1, §2

Compound | effect on the hypertension induced by angiotensin infusion ([1]; angiotensin II infused rats) | angiotensinogen excretion (in words) [1] | UAGT (Final) [1] | UAGT (Initial) [1] | increase in angiotensinogen (in words) ([2]; NDSR rats: nephrectomy, DOCA plus saline, treated with resibufogenin) | UAGT (Final) ([2]; male rats, nephrectomy DOCA saline model, final measurement, NDS without RBG 2.2 ± 0.3)
C[C@]12CC[C@H](O)C[C@H]1CC[C@@H]1[C@@H]2CC[C@]2(C)[C@@H](c3ccc(=O)oc3)C[C@H]3O[C@]132 [RBG, resibufogenin] | no effect | no effect | 7.8 ± 0.4 nmol/day | 2.6 ± 0.2 nmol/day | no meaningful increase | 2.0 ± 0.2 nmol/day
angiotensin II (DRVYIHPF; Angiotensin-2; UniProt P01019 25-32, looked up) [powerful vasoconstrictor, an octapeptide, infused to induce vasoconstriction] | – | very substantial increase | 7.1 ± 0.5 nmol/day | 2.6 ± 0.2 nmol/day | – | –
